Key:
[1] = tested on: Glomerella lagenarium (Colletotrichum lagenarium); assay: Fungicidal activity against Glomerella lagenarium (Colletotrichum lagenarium) liquid culture / cucumber / preventative (anthracnose); type: cell-based; conditions: Colletotrichum orbiculare; 20 ppm in the applied formulation; liquid culture (PDB), growth inhibition measured photometrically after 3 to 4 days; compared to untreated control; read-out: disease control
How it was run: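 Photometric read-out of fungal growth after 2–7 days, expressed as percent antifungal activity versus untreated check. Cryo-stored conidia in PDB; compound at 20 ppm; dark, 24 °C, 96% RH.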

[2] = tested on: Puccinia recondita f. Sp. Tritici; assay: Fungicidal activity against Puccinia recondita f. sp. tritici / wheat / leaf disc curative (brown rust); type: in vivo; conditions: foliar, 24 h, 200 ppm in the applied formulation, wheat leaf segments, curative (applied 1 day after inoculation), compared to untreated control leaf disks, read-out: disease control
How it was run: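 Inoculate cv. Kanzler segments on agar; hold dark, 19° C, 75% RH. Spray diluted formulated compound at day 1. Incubate 12 h light/12 h dark, same temperature and humidity; score % control vs untreated 6–8 days later.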

[3] = tested on: Puccinia recondita f. Sp. Tritici; assay: Fungicidal activity against Puccinia recondita f. sp. tritici / wheat / leaf disc preventative (brown rust); type: in vivo; conditions: foliar, 200 ppm in the applied formulation, wheat leaf segments, preventative, compared to untreated control leaf disks, read-out: disease control
How it was run: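 Preventative leaf-segment test, wheat cv. Kanzler on water agar. Spray compound at 200 ppm, inoculate with spores 1 day later; 19° C., 75% rh, 12/12 h light. Read-out: % disease control vs untreated, 7 to 9 days after application.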

Phakopsora Pachyrhizi = assay: Fungicidal activity against Phakopsora pachyrhizi / soybean / leaf disc preventative (Asian soybean rust); type: in vivo; conditions: foliar, 200 ppm in the applied formulation, soybean leaf disks, compared to untreated control leaf disks, read-out: disease control
How it was run: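 Preventative soybean leaf-disc test: discs on water agar sprayed with diluted formulated compound, inoculated one day later with spores on the lower surface. Held 24–36 h dark at 20°C, 75% rh, then 12 h light/day; percent disease control versus untreated discs scored 12–14 days after application.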

COCCN(Cc1ccc(-c2noc(C(F)(F)F)n2)cc1)C(=O)C(C)OC (centres unmarked) [Compound 1.359, 2-methoxy-N-(2-methoxyethyl)-N-[[4-[5-(trifluoromethyl)-1,2,4-oxadiazol-3-yl]phenyl]methyl]-propanamide]
≥ 80%: inhibition of growth at 20 ppm [1] | pest or weed control at 200 ppm [2] | pest or weed control at 200 ppm [3] | pest or weed control at 200 ppm (Phakopsora Pachyrhizi)

COC(C)C(=O)N(Cc1ccc(-c2noc(C(F)(F)F)n2)cc1)CC(F)(F)F (centres unmarked) [Compound 1.703, 2-methoxy-N-(2,2,2-trifluoroethyl)-N-[[4-[5-(trifluoromethyl)-1,2,4-oxadiazol-3-yl]phenyl]methyl]-propanamide]
≥ 80%: inhibition of growth at 20 ppm [1] | pest or weed control at 200 ppm [2] | pest or weed control at 200 ppm [3] | pest or weed control at 200 ppm (Phakopsora Pachyrhizi)

O=C(NC1CC1)N(Cc1ccc(-c2noc(C(F)(F)F)n2)cc1)C1CC1 [Compound 3.36, 1,3-dicyclopropyl-1-[[4-[5-(trifluoromethyl)-1,2,4-oxadiazol-3-yl]phenyl]methyl]urea]
≥ 80%: inhibition of growth at 20 ppm [1] | pest or weed control at 200 ppm [2] | pest or weed control at 200 ppm [3] | pest or weed control at 200 ppm (Phakopsora Pachyrhizi)

CCC(C)C(=O)N(Cc1ccc(-c2noc(C(F)(F)F)n2)cc1)C1CC1 (centres unmarked) [Compound 1.126, N-cyclopropyl-2-methyl-N-[[4-[5-(trifluoromethyl)-1,2,4-oxadiazol-3-yl]phenyl]methyl]-butanamide]
≥ 80%: inhibition of growth at 20 ppm [1] | pest or weed control at 200 ppm [2] | pest or weed control at 200 ppm [3] | pest or weed control at 200 ppm (Phakopsora Pachyrhizi)

CON(Cc1ccc(-c2noc(C(F)(F)F)n2)cc1)C(=O)CC(C)C [Compound 1.34, N-methoxy-3-methyl-N-[[4-[5-(trifluoromethyl)-1,2,4-oxadiazol-3-yl]phenyl]methyl]-butanamide]
≥ 80%: inhibition of growth at 20 ppm [1] | pest or weed control at 200 ppm [2] | pest or weed control at 200 ppm [3] | pest or weed control at 200 ppm (Phakopsora Pachyrhizi)

C#CCCC(=O)N(CC#C)Cc1ccc(-c2noc(C(F)(F)F)n2)cc1 [Compound 1.154, N-prop-2-ynyl-N-[[4-[5-(trifluoromethyl)-1,2.4-oxadiazol-3-yl]phenyl]methyl]-pent-4-ynamide]
≥ 80%: inhibition of growth at 20 ppm [1] | pest or weed control at 200 ppm [2] | pest or weed control at 200 ppm [3] | pest or weed control at 200 ppm (Phakopsora Pachyrhizi)

CCCN(Cc1ccc(-c2noc(C(F)(F)F)n2)cc1)C(=O)CCCOC [Compound 1.662, 4-methoxy-N-propyl-N-[[4-[5-(trifluoromethyl)-1,2,4-oxadiazol-3-yl]phenyl]methyl]-butanamide]
≥ 80%: inhibition of growth at 20 ppm [1] | pest or weed control at 200 ppm [2] | pest or weed control at 200 ppm [3] | pest or weed control at 200 ppm (Phakopsora Pachyrhizi)

O=C(N(Cc1ccc(-c2noc(C(F)(F)F)n2)cc1)C1CC1)C1(C(F)(F)F)CC1 [Compound 1.83, N-cyclopropyl-1-(trifluoromethyl)-N-[[4-[5-(trifluoromethyl)-1,2,4-oxadiazol-3-yl]phenyl]methyl]-cyclopropane-carboxamide]
≥ 80%: inhibition of growth at 20 ppm [1] | pest or weed control at 200 ppm [2] | pest or weed control at 200 ppm [3] | pest or weed control at 200 ppm (Phakopsora Pachyrhizi)

C#CCN(Cc1ccc(-c2noc(C(F)(F)F)n2)cc1)C(=O)Cc1cccnc1 [Compound 1.170, N-prop-2-ynyl-2-(3-pyridyl)-N-[[4-[5-(trifluoromethyl)-1,2,4-oxadiazol-3-yl]phenyl]methyl]-acetamide]
≥ 80%: inhibition of growth at 20 ppm [1] | pest or weed control at 200 ppm [2] | pest or weed control at 200 ppm [3] | pest or weed control at 200 ppm (Phakopsora Pachyrhizi)

CON(Cc1ccc(-c2noc(C(F)(F)F)n2)cc1)C(=O)C1CCCC1 [Compound 1.27, N-methoxy-N-[[4-[5-(trifluoromethyl)-1,2,4-oxadiazol-3-yl]phenyl]methyl]-cyclopentane-carboxamide]
≥ 80%: inhibition of growth at 20 ppm [1] | pest or weed control at 200 ppm [2] | pest or weed control at 200 ppm [3] | pest or weed control at 200 ppm (Phakopsora Pachyrhizi)

CON(Cc1ccc(-c2noc(C(F)(F)F)n2)cc1)C(=O)C(C)(C)OC [Compound 1.779, N,2-dimethoxy-2-methyl-N-[[4-[5-(trifluoromethyl)-1,2,4-oxadiazol-3-yl]phenyl]methyl]-propanamide]
≥ 80%: inhibition of growth at 20 ppm [1] | pest or weed control at 200 ppm [2] | pest or weed control at 200 ppm [3] | pest or weed control at 200 ppm (Phakopsora Pachyrhizi)

CC(C)N(Cc1ccc(-c2noc(C(F)(F)F)n2)cc1)C(=O)C1CCCO1 (centres unmarked) [Compound 1.682, N-isopropyl-N-[[4-[5-(trifluoromethyl)-1,2,4-oxadiazol-3-yl]phenyl]methyl]-tetrahydrofuran-2-carboxamide]
≥ 80%: inhibition of growth at 20 ppm [1] | pest or weed control at 200 ppm [2] | pest or weed control at 200 ppm [3] | pest or weed control at 200 ppm (Phakopsora Pachyrhizi)

CCON(Cc1ccc(-c2noc(C(F)(F)F)n2)cc1)C(=O)C(C)CC (centres unmarked) [Compound 1.622, N-ethoxy-2-methyl-N-[[4-[5-(trifluoromethyl)-1,2,4-oxadiazol-3-yl]phenyl]methyl]-butanamide]
≥ 80%: inhibition of growth at 20 ppm [1] | pest or weed control at 200 ppm [2] | pest or weed control at 200 ppm [3] | pest or weed control at 200 ppm (Phakopsora Pachyrhizi)

CCC(C)N(Cc1ccc(-c2noc(C(F)(F)F)n2)cc1)C(=O)C1(C)COC1 (centres unmarked) [Compound 1.395, 3-methyl-N-sec-butyl-N-[[4-[5-(trifluoromethyl)-1,2,4-oxadiazol-3-yl]phenyl]methyl]-oxetane-3-carboxamide]
≥ 80%: inhibition of growth at 20 ppm [1] | pest or weed control at 200 ppm [2] | pest or weed control at 200 ppm [3] | pest or weed control at 200 ppm (Phakopsora Pachyrhizi)

CON(Cc1ccc(-c2noc(C(F)(F)F)n2)cc1)C(=O)C1CC1C (centres unmarked) [Compound 1.40, N-methoxy-2-methyl-N-[[4-[5-(trifluoromethyl)-1,2,4-oxadiazol-3-yl]phenyl]methyl]-cyclopropane-carboxamide]
≥ 80%: inhibition of growth at 20 ppm [1] | pest or weed control at 200 ppm [2] | pest or weed control at 200 ppm [3] | pest or weed control at 200 ppm (Phakopsora Pachyrhizi)

CC1CC1C(=O)N(Cc1ccc(-c2noc(C(F)(F)F)n2)cc1)C1CC1 (centres unmarked) [Compound 1.115, N-cyclopropyl-2-methyl-N-[[4-[5-(trifluoromethyl)-1,2,4-oxadiazol-3-yl]phenyl]methyl]-cyclopropane-carboxamide]
≥ 80%: inhibition of growth at 20 ppm [1] | pest or weed control at 200 ppm [2] | pest or weed control at 200 ppm [3] | pest or weed control at 200 ppm (Phakopsora Pachyrhizi)

CC(C)N(Cc1ccc(-c2noc(C(F)(F)F)n2)cc1)C(=O)CC#N [Compound 1.683, 2-cyano-N-isopropyl-N-[[4-[5-(trifluoromethyl)-1,2,4-oxadiazol-3-yl]phenyl]methyl]-acetamide]
≥ 80%: inhibition of growth at 20 ppm [1] | pest or weed control at 200 ppm [2] | pest or weed control at 200 ppm [3] | pest or weed control at 200 ppm (Phakopsora Pachyrhizi)

CC(C)C(=O)N(Cc1ccc(-c2noc(C(F)(F)F)n2)cc1)C1COC1 [Compound 1.738, 2-methyl-N-(oxetan-3-yl)-N-[[4-[5-(trifiuoromethyl)-1,2,4-oxadiazol-3-yl]phenyl]methyl]-propanamide]
≥ 80%: inhibition of growth at 20 ppm [1] | pest or weed control at 200 ppm [2] | pest or weed control at 200 ppm [3] | pest or weed control at 200 ppm (Phakopsora Pachyrhizi)

COCCN(Cc1ccc(-c2noc(C(F)(F)F)n2)cc1)C(=O)C1CCCO1 (centres unmarked) [Compound 1.355, N-(2-methoxyethyl)-N-[[4-[5-(trifluoromethyl)-1,2,4-oxadiazol-3-yl]phenyl]methyl]-tetrahydrofuran-2-carboxamide]
≥ 80%: inhibition of growth at 20 ppm [1] | pest or weed control at 200 ppm [2] | pest or weed control at 200 ppm [3] | pest or weed control at 200 ppm (Phakopsora Pachyrhizi)

C#CCN(C)C(=O)N(Cc1ccc(-c2noc(C(F)(F)F)n2)cc1)OC [Compound 3.61, 1-methoxy-3-methyl-3-prop-2-ynyl-1-[[4-[5-(trifluoromethyl)-1,2,4-oxadiazol-3-yl]phenyl]methyl]urea]
≥ 80%: inhibition of growth at 20 ppm [1] | pest or weed control at 200 ppm [2] | pest or weed control at 200 ppm [3] | pest or weed control at 200 ppm (Phakopsora Pachyrhizi)

— patent publication US11180462B2, “Microbiocidal oxadiazole derivatives” (SYNGENTA PARTICIPATIONS AG, priority 2015, dated 2021)
